In PubChem BioAssay AID1918934 (Molecular Pharmacology Branch, DTP, NCI, 2023):
Several values for one entry are separate records, joined by “and”; a condition that tells them apart may be missing. Identical values can stand only once.

Test system: 292921-168-R-J2-PDC complex spheroid viability
Assay: Anticancer human tumor 292921-168-R-J2-PDC patient-derived pancreatic carcinoma cell line growth inhibition
Conditions: for viability, T/C: stronger effect = lower value
Method in brief: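 Multicellular complex spheroids of tumor cells with human endothelial cells (HUVEC) and mesenchymal stem cells; the LSD1 inhibitor iadademstat was combined with standard-of-care or investigational agents. Top concentration at or near clinical Cmax, half-log dilutions; final DMSO ≤0.25%.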

[1] = curve of first compound, second compound 0.1 µM
[2] = curve of first compound, second compound 0.316 µM
[3] = curve of first compound, second compound 1 µM
[4] = curve of first compound, second compound 3.16 µM
[5] = curve of first compound, second compound 10 µM
[6] = second compound 0.1 µM, first compound 0.00316 µM
[7] = second compound 0.1 µM, first compound 0.01 µM
[8] = second compound 0.1 µM, first compound 0.0316 µM
[9] = second compound 0.1 µM, first compound 0.1 µM
[10] = second compound 0.1 µM, first compound 0.316 µM
[11] = second compound 0.1 µM, first compound 1 µM
[12] = second compound 0.316 µM, first compound 0.00316 µM
[13] = second compound 0.316 µM, first compound 0.01 µM
[14] = second compound 0.316 µM, first compound 0.0316 µM
[15] = second compound 0.316 µM, first compound 0.1 µM
[16] = second compound 0.316 µM, first compound 0.316 µM
[17] = second compound 0.316 µM, first compound 1 µM
[18] = second compound 1 µM, first compound 0.00316 µM
[19] = second compound 1 µM, first compound 0.01 µM
[20] = second compound 1 µM, first compound 0.0316 µM
[21] = second compound 1 µM, first compound 0.1 µM
[22] = second compound 1 µM, first compound 0.316 µM
[23] = second compound 1 µM, first compound 1 µM
[24] = second compound 3.16 µM, first compound 0.00316 µM
[25] = second compound 3.16 µM, first compound 0.01 µM
[26] = second compound 3.16 µM, first compound 0.0316 µM
[27] = second compound 3.16 µM, first compound 0.1 µM
[28] = second compound 3.16 µM, first compound 0.316 µM
[29] = second compound 3.16 µM, first compound 1 µM
[30] = second compound 10 µM, first compound 0.00316 µM
[31] = second compound 10 µM, first compound 0.01 µM
[32] = second compound 10 µM, first compound 0.0316 µM
[33] = second compound 10 µM, first compound 0.1 µM
[34] = second compound 10 µM, first compound 0.316 µM
[35] = second compound 10 µM, first compound 1 µM
[36] = second compound 0.1 µM, first compound 3.16 µM
[37] = second compound 0.1 µM, first compound 10 µM
[38] = second compound 0.316 µM, first compound 3.16 µM
[39] = second compound 0.316 µM, first compound 10 µM
[40] = second compound 1 µM, first compound 3.16 µM
[41] = second compound 1 µM, first compound 10 µM
[42] = second compound 3.16 µM, first compound 3.16 µM
[43] = second compound 3.16 µM, first compound 10 µM
[44] = second compound 10 µM, first compound 3.16 µM
[45] = second compound 10 µM, first compound 10 µM
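Note: seven day compound exposure before luminescent viability read.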
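Throughout, for viability, T/C: 100% = DMSO vehicle control wells.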

Compound | IC50 [1] [nM] | IC50 [2] [nM] | IC50 [3] [nM] | IC50 [4] [nM] | IC50 [5] [nM] | viability, T/C [8] [%] | viability, T/C [9] [%] | viability, T/C [10] [%] | viability, T/C [11] [%] | viability, T/C [14] [%] | viability, T/C [15] [%] | viability, T/C [16] [%] | viability, T/C [17] [%] | viability, T/C [20] [%] | viability, T/C [21] [%] | viability, T/C [22] [%] | viability, T/C [26] [%] | viability, T/C [27] [%] | viability, T/C [32] [%] | viability, T/C [33] [%] | also measured
CC1COCCN1c1cc(-c2ccnn2C)c2ccnc(-c3ccn[nH]3)c2n1 (configuration not stated) + NC1CC1c1ccc(-c2cccc(O)c2)cc1 | < 3.16 | < 3.16 | < 3.16 | < 3.16 | < 3.16 | 14.2 | 15.7 | 16.2 | 17.7 | 13.2 | 14.3 | 15.9 | 16.7 | 14.1 | 12.7 | 16.8 | 14.7 | 13.7 | 14.6 | 13.5 | viability, T/C [6]: 16.9%; viability, T/C [7]: 15.3%; viability, T/C [12]: 17.2%; viability, T/C [13]: 14.9%; viability, T/C [18]: 17.7%; viability, T/C [19]: 15.4%; viability, T/C [23]: 20.3%; viability, T/C [24]: 15.2%; viability, T/C [25]: 15.4%; viability, T/C [28]: 14.9%; viability, T/C [29]: 17%; viability, T/C [30]: 15.1%; viability, T/C [31]: 14.6%; viability, T/C [34]: 15.1%; viability, T/C [35]: 17.1%
NS(=O)(=O)OCC1CC(n2ccc3c(NC4CCc5ccccc54)ncnc32)CC1O (configuration not stated) | – | – | – | – | – | – | – | – | – | – | – | – | – | – | – | – | – | – | – | – | viability, T/C (compound 0.00949 µM): 81.2% and 90.5%; viability, T/C (compound 0.03 µM): 15.7% and 18%; viability, T/C (compound 0.0949 µM): 2.87% and 3.52%; viability, T/C (compound 0.3 µM): 1.94% and 1.72%; viability, T/C (compound 0.949 µM): 1.98% and 1.67%; viability, T/C (compound 3 µM): 1.78% and 1.54%; IC50 (curve of compound): 16.4 nM and 18.1 nM
O=C(C=Cn1cnc(-c2cc(C(F)(F)F)cc(C(F)(F)F)c2)n1)NNc1cnccn1 + NC1CCC(NC2CC2c2ccccc2)CC1 | 5.43 | 8.67 | 10.6 | 6.77 | 5.92 | 25.9 | 13.2 | 6.69 | 6.34 | 27 | 13.6 | 8.09 | 7.2 | 29 | 13.8 | 9.01 | 29.9 | 12.9 | 30.2 | 16.3 | viability, T/C [6]: 52.7%; viability, T/C [7]: 47.4%; viability, T/C [12]: 54.7%; viability, T/C [13]: 50.4%; viability, T/C [18]: 56.7%; viability, T/C [19]: 52.1%; viability, T/C [23]: 7.09%; viability, T/C [24]: 53%; viability, T/C [25]: 48.5%; viability, T/C [28]: 8.57%; viability, T/C [29]: 8.41%; viability, T/C [30]: 53.2%; viability, T/C [31]: 47.8%; viability, T/C [34]: 9.15%; viability, T/C [35]: 8.4%
O=C(c1cc(Cc2n[nH]c(=O)c3ccccc23)ccc1F)N1CCN(C(=O)C2CC2)CC1 + NC1CCC(NC2CC2c2ccccc2)CC1 | 4520 | 3020 | 1060 | 1220 | 1300 | 63.7 | 65.6 | 70.3 | 58.6 | 61.5 | 59.8 | 64.7 | 57.1 | 55.5 | 58.6 | 51.8 | 55.4 | 54.5 | 53.9 | 54.4 | viability, T/C [36]: 55%; viability, T/C [37]: 39.5%; viability, T/C [38]: 47.5%; viability, T/C [39]: 36%; viability, T/C [23]: 51.9%; viability, T/C [40]: 42.5%; viability, T/C [41]: 31.8%; viability, T/C [28]: 60%; viability, T/C [29]: 50.3%; viability, T/C [42]: 42%; viability, T/C [43]: 34.9%; viability, T/C [34]: 54.4%; viability, T/C [35]: 52%; viability, T/C [44]: 42.9%; viability, T/C [45]: 32%
NC1CC1c1ccc(-c2cccc(O)c2)cc1 (configuration not stated) | – | – | – | – | – | – | – | – | – | – | – | – | – | – | – | – | – | – | – | – | viability, T/C (compound 0.1 µM): 80.2%; viability, T/C (compound 0.316 µM): 71.4% [middle of 24 runs]; viability, T/C (compound 1 µM): 67.6% [middle of 25 runs]; viability, T/C (compound 3.16 µM): 64.6% [middle of 25 runs]; viability, T/C (compound 10 µM): 54.7% [middle of 25 runs]
CC[C@@]1(O)C(=O)OCc2c1cc1n(c2=O)Cc2cc3c(CN(C)C)c(O)ccc3nc2-1 + NC1CCC(NC2CC2c2ccccc2)CC1 | 2.11 | 1.65 | 1.58 | 1.07 | 0.869 | 8.14 | 4.05 | – | – | 8.83 | 4.07 | – | – | 10.6 | 4.35 | – | 8.6 | 3.74 | 8.03 | 3.69 | viability, T/C (second compound 0.1 µM, first compound 0.000316 µM): 64.5%; viability, T/C (second compound 0.1 µM, first compound 0.001 µM): 60.2%; viability, T/C [6]: 44.6%; viability, T/C [7]: 19.7%; viability, T/C (second compound 0.316 µM, first compound 0.000316 µM): 61.4%; viability, T/C (second compound 0.316 µM, first compound 0.001 µM): 61%; viability, T/C [12]: 37.9%; viability, T/C [13]: 18.5%; viability, T/C (second compound 1 µM, first compound 0.000316 µM): 61.2%; viability, T/C (second compound 1 µM, first compound 0.001 µM): 56.4%; viability, T/C [18]: 40.9%; viability, T/C [19]: 19.4%; viability, T/C (second compound 3.16 µM, first compound 0.000316 µM): 54.9%; viability, T/C (second compound 3.16 µM, first compound 0.001 µM): 50.8%; viability, T/C [24]: 38.2%; viability, T/C [25]: 18.5%; viability, T/C (second compound 10 µM, first compound 0.000316 µM): 51.4%; viability, T/C (second compound 10 µM, first compound 0.001 µM): 50.9%; viability, T/C [30]: 36.9%; viability, T/C [31]: 15.6%
CC1COCCN1c1cc(-c2ccnn2C)c2ccnc(-c3ccn[nH]3)c2n1 (configuration not stated) + NC1CCC(NC2CC2c2ccccc2)CC1 | < 3.16 | < 3.16 | < 3.16 | < 3.16 | < 3.16 | 13 | 16.4 | 18.4 | 19.3 | 12 | 15.7 | 16.9 | 18.3 | 13.5 | 14.2 | 14.8 | 12.2 | 13.5 | 12.3 | 12.5 | viability, T/C [6]: 14.1%; viability, T/C [7]: 12.3%; viability, T/C [12]: 15.7%; viability, T/C [13]: 14.8%; viability, T/C [18]: 14.4%; viability, T/C [19]: 15.1%; viability, T/C [23]: 17.2%; viability, T/C [24]: 15.7%; viability, T/C [25]: 15.5%; viability, T/C [28]: 15.3%; viability, T/C [29]: 16%; viability, T/C [30]: 13.7%; viability, T/C [31]: 14%; viability, T/C [34]: 14.2%; viability, T/C [35]: 17.3%
CC1(C)CCC(CN2CCN(c3ccc(C(=O)NS(=O)(=O)c4ccc(NCC5CCOCC5)c([N+](=O)[O-])c4)c(Oc4cnc5[nH]ccc5c4)c3)CC2)=C(c2ccc(Cl)cc2)C1 + NC1CCC(NC2CC2c2ccccc2)CC1 | 1640 | 1310 | 1330 | 1260 | 1110 | 63.5 | 71.4 | 73.3 | 72.4 | 66.3 | 60.1 | 68.2 | 60.1 | 53 | 58.8 | 65.4 | 58.1 | 60.9 | 64.2 | 64 | viability, T/C [36]: 23.2%; viability, T/C [37]: 0.18%; viability, T/C [38]: 15.8%; viability, T/C [39]: 0.25%; viability, T/C [23]: 67.6%; viability, T/C [40]: 16.2%; viability, T/C [41]: 0.26%; viability, T/C [28]: 62.3%; viability, T/C [29]: 59.4%; viability, T/C [42]: 12.2%; viability, T/C [43]: 0.14%; viability, T/C [34]: 66.4%; viability, T/C [35]: 53.4%; viability, T/C [44]: 12.7%; viability, T/C [45]: 0.23%
